Assay results published in US7288557B2, “Triazole derivatives” (Hoffmann-La Roche Inc., priority 2004, dated 2007).

Tested on: HEK293 cells
Test: Viability assay of HEK293 cells (CellTiter-Glo luminescent cell viability assay)
Format: cell-based, human
Conditions: 7 days (168 h) incubation, 3 μM to 0.00015 μM
Procedure: Viability Assay of HEK293 Cells
A viability assay was performed using the CellTiter-Glo® Luminescent Cell Viability Assay (see Promega Corporation's Technical No. 288, pp. 1-11 [revised February 2004] which is hereby incorporated by reference in its entirety). This assay is a homogeneous method of determining the number of viable cells in culture based on quantitation of the ATP present, an indicator of metabolically active cells. The assay is designed for use with multiwell formats, making it ideal for automated high-throughput screening (HTS), cell proliferation and cytotoxicity assays. The homogeneous assay procedure involves adding a single reagent (containing luciferase, luciferan substrate, and buffer) directly to cells cultured in serum-supplemented medium. Cell washing, removal of medium and multiple pipetting steps are not required. The system detects as few as 15 cells/well in a 384-well format in 10 minutes after adding reagent and mixing.
The homogeneous “add-mix-measure” format results in cell lysis and generation of a luminescent signal proportional to the amount of ATP present. The amount of ATP is directly proportional to the number of cells present in culture. The above-referenced assay generates a “glow-type” luminescent signal, produced by the luciferase reaction, which has a half-life generally greater than five hours, depending on cell type and medium used. The extended half-life eliminates the need to use reagent injectors and provides flexibility for continuous or batch mode processing of multiple plates. […]
HEK293 cells (human embryonic kidney cell line transformed by Adenovirus 5 fragments, ATCC-No. CRL 1573) were cultivated in Dulbecco's Modified Eagle Medium (D-MEM) (1×) liquid (high glucose) (which includes L-Alanyl-L-Glutamine [a stabilized a form of L-Glutamine], 4500 mg/L glucose, and 110 mg/L sodium pyruvate) from Invitrogen Corporation (Invitrogen Catalog Number 31966-021 [now 10569-010] which is hereby incorporated by reference in its entirety), 5% Fetal Calf Serum (FCS, Sigma Cat-No. F4135 [FBS] which is hereby incorporated by reference in its entirety), and 100 Units/ml penicillin/100 μg/ml streptomycin (=Pen/Strep from Invitrogen Cat. No. 15140, which is hereby incorporated by reference in its entirety). […] After 7 days the above viability assay was performed in accordance with the following steps: • Step 1: The cell-plate was equilibrated to room temperature for approximately 30 minutes and than the assay reagent (containing luciferase, luciferan substrate, and buffer) was added. • Step 2: The contents were carefully mixed for 15 minutes to induce cell lysis. • Step 3: After 45 minutes the luminescent signal was measured in Victor 2, (scanning multiwell spectrophotometer, Wallac). […]

Row | Structure (SMILES) | IC50 | IC50 (Homo sapiens)
1 | OC(CCCn1ccnn1)c1ccc(OCc2coc(/C=C/c3ccc(OC(F)(F)F)cc3)n2)cc1 (racemic) [Example 2, (rac)-4-[1,2,3]Triazol-1-yl-1-(4-{2-[(E)-2-(4-trifluoro-methoxyphenyl)-vinyl]-oxazol-4-ylmethoxy}-phenyl)-butan-1-ol] | 21.1 nM | 
2 | O=C(CCCn1ccnn1)c1ccc(OCc2coc(/C=C/c3ccc(OC(F)(F)F)cc3)n2)cc1 [Example 1, 4-[1,2,3]Triazol-1-yl-1-(4-{2-[(E)-2-(4-trifluoromethoxy-phenyl)-vinyl]-oxazol-4-ylmethoxy}-phenyl)-butan-1-one] |  | 17.9 nM
3 | O=C(CCCn1ccnn1)c1ccc(OCc2coc(/C=C/c3ccc(SC(F)(F)F)cc3)n2)cc1 [Example 3, 4-[1,2,3]Triazol-1-yl-1-(4-{2-[(E)-2-(4-trifluoromethylsulfanyl-phenyl)-vinyl]-oxazol-4-ylmethoxy}-phenyl)-butan-1-one] |  | 29.9 nM
4 | O=C(CCCn1ccnn1)c1ccc(OCc2coc(C=Cc3ccc(C(F)(F)F)cc3)n2)cc1 [Reference compound, 4-[1,2,3]Triazol-1-yl-1-(4-{2-[2-(4-trifluoromethyl-phenyl)-vinyl]-oxazol-4-ylmethoxy}-phenyl)-butan-1-one, reference compound] |  | 164 nM
